# Data published in patent US20130295150A1, “ELECTRICITY-GENERATING PARTICULATES AND THE USE THEREOF” (Johnson & Johnson Consumer Companies, Inc., priority 2007, published 2013).
# How the values were obtained:
# Assay type in all cases: cell-based
# [1] = tested on: Human keratinocyte cells; test: Stimulation of hydrogen peroxide production, CM-H2DCFDA fluorescence; conditions: 0.03% positive control
# Description: Human keratinocyte cells were seeded in assay plates at identical densities and incubated for 48 hours at 37° C. with 5% CO2. […] Cells were treated with galvanic particulates or zinc or copper metal powders alone over increasing amounts of time. Treatment of control wells with 0.03% hydrogen peroxide served as a positive control. Hydrogen peroxide production was quantitated using a fluorescent plate reader set at wavelengths 485 excitation/530 emission. The results are depicted in Tables 17 and 18.
# [2] = tested on: Human T-cells stimulated with PHA; test: Human T-cell cytokine release stimulated with PHA; conditions: 100 ug/ml, 10 μg/mL PHA, 48-hour incubation; for Cytokine Release Percent (%) Reduction: IL-2
# Description: Human T-cells were collected from a healthy adult […] via leukopheresis. The T-cells were isolated from peripheral blood via Ficol gradient, and the cells were adjusted to a density of 1×10^6 cells/mL in serum free lymphocyte growth medium (ExVivo-15, Biowhittaker, Walkersville, Md.). Human T-cells were stimulated with 10 μg/mL PHA in the presence or absence of test compounds following published method (Hamamoto Y., et al. Exp Dermatol 2:231-235, 1993). Following a 48-hour incubation at 37° C. with 5% CO2, supernatant was removed and evaluated for cytokine content using commercially available multiplex cytokine detection kit.
# [3] = tested on: C. albicans; test: Agar disc microwell assay, log reduction by plate count; conditions: about 6 log CFU in saline, 37° C., 200 rpm
# Description: (§1) Agar discs containing copper-zinc galvanic particulates from Example 1(a) or zinc acetate at a concentration of 0.1%, 0.5%, or 1% were exposed to about 6 log CFU of MRSA or C. albicans in saline in microwell plate and incubated at 37° C. and 200 rpm for 24 hrs. Plate count was performed to enumerate the viable microorganisms after the incubation. Log reduction was defined as the log difference of the inoculum before and after the incubation with the test articles (e.g., a log reduction of 6 for the inoculum of 6 log means all the inoculum were killed, and a log reduction of 3 for the inoculum of 6 log means […] of the inoculum were killed).
# (§2) Agar discs containing 0.1% copper coated zinc galvanic particulates from Example 1(a) or zinc acetate at 1% or copper acetate at 0.1% were exposed to about 6 log CFU of MRSA or C. albicans in saline in microwell plates, and incubated at 37° C., 200 rpm for 24 hr.
# (§3) Plate count was performed to enumerate the viable microorganisms after the incubation. Log reduction was defined as the log difference of the inoculum before and after the incubation with the test articles.
# [4] = tested on: MRSA; test: as above; conditions: about 6 log CFU in saline, 37° C., 200 rpm
# Description: as §1, §2, §3
# [5] = tested on: C. albicans; test: Sustained efficacy, zone of inhibition on day 1 and after transfer to new plate on day 2; conditions: 1% in agar disc
# Description: (§4) Agars discs containing either galvanic particulates as described in Example 1(a) or zinc acetate at 1% were placed on TSA agar surface inoculated with about 6 log CFU of MRSA or C. albicans and incubated at 37° C. for 24 hr (day-1).
# [6] = tested on: MRSA; test: as above; conditions: 1% in agar disc
# Description: as §4
# [7] = tested on: C. albicans; test: Zone of inhibition testing versus copper acetate and zinc acetate; conditions: about 6 log CFU, 37° C., 24 hr
# Description: (§5) Zone of inhibition testing was performed on agar discs containing copper-zinc galvanic particulates from Example 1(a) at 0.5%, Zn acetate at 0.5%, and Cu acetate at 0.1%. The discs were placed on TSA agar surface, inoculated with about 6 log CFU of MRSA or C. albicans, and incubated at 37° C. for 24 hr.
# [8] = tested on: MRSA; test: as above; conditions: about 6 log CFU, 37° C., 24 hr
# Description: as §5
# [9] = Table 2, test material 0.10% in agar disc, 24 hrs
# [10] = Table 2, test material 0.50% in agar disc, 24 hrs
# [11] = Table 2, test material 1.00% in agar disc, 24 hrs
# [12] = Table 4, 1% in agar disc, 24 hr
# [13] = same disc moved to newly inoculated TSA plate, 24 hr (day-2)
# [14] = Table 4, 0.1% in agar disc, 24 hr
compound,measurement,setting,value
"OO [Example H2O2, hydrogen peroxide]","Hydrogen peroxide production (fluorescence), 30 Minutes",[1],416.6 ± 61.3
same,"Hydrogen peroxide production (fluorescence), 60 Minutes",[1],591.4 ± 82.7
same,"Hydrogen peroxide production (fluorescence), 200 Minutes",[1],1117.5 ± 153.8
same,"Hydrogen peroxide production (fluorescence), 240 Minutes",[1],1214.8 ± 149.7
same,"Hydrogen peroxide production (fluorescence), Baseline",[1],98.1 ± 4.4
C[C@]12CCC(=O)C=C1CC[C@@H]1[C@@H]2[C@@H](O)C[C@@]2(C)[C@H]1CC[C@]2(O)C(=O)CO [Hydrocortisone],Cytokine Release IL-2,[2],7.69 ± 5.64 pmol/mL
same,Cytokine Release Percent (%) Reduction,[2],98.6%
"CC(=O)[O-].CC(=O)[O-].[Zn+2] [Zinc Acetate, zinc acetate]",LOG REDUCTION C. albicans,[3]; [9],2.2
same,LOG REDUCTION C. albicans,[3]; [10],2.9
same,LOG REDUCTION C. albicans,[3]; [11],4.7
same,LOG REDUCTION C. albicans,[3]; [12],4.7
same,LOG REDUCTION MRSA,[4]; [9],1.7
same,LOG REDUCTION MRSA,[4]; [10],3.2
same,LOG REDUCTION MRSA,[4]; [11],5.1
same,LOG REDUCTION MRSA,[4]; [12],5.1
same,"zone of inhibition, day 1","[5]; 37° C., 24 hr (day-1)",produce a zone of inhibition
same,"zone of inhibition, day 2",[5]; [13],did not show any inhibition
same,"zone of inhibition, day 1","[6]; 37° C., 24 hr (day-1)",produce a zone of inhibition
same,"zone of inhibition, day 2",[6]; [13],did not show any inhibition
same,zone of inhibition,[7]; 0.5% in agar disc on TSA agar,"smaller zone of inhibition, approximately one half the radius"
same,zone of inhibition,[8]; 0.5% in agar disc on TSA agar,"smaller zone of inhibition, approximately one half the radius"
[Cl-].[Cl-].[Zn+2] [Zinc Chloride],Cytokine Release IL-2,[2],566.3 ± 20.6 pmol/mL
same,Cytokine Release Percent (%) Reduction,[2],−0.6%
copper acetate,LOG REDUCTION C. albicans,[3]; [14],0.3
same,LOG REDUCTION MRSA,[4]; [14],0.2
same,Cytokine Release IL-2,[2],312.9 ± 96.8 pmol/mL
same,Cytokine Release Percent (%) Reduction,[2],44.4%
same,zone of inhibition,[7]; 0.1% in agar disc on TSA agar,did not show any visible zone of inhibition
same,zone of inhibition,[8]; 0.1% in agar disc on TSA agar,did not show any visible zone of inhibition
